In US20210387996A1, “TRICYCLIC COMPOUNDS FOR THE TREATMENT AND PROPHYLAXIS OF HEPATITIS B VIRUS DISEASE” (priority 2018, published 2021):

Tests used:
[1] = system: HBV (extracellular HBsAg) in PHH; experiment: Cryopreserved primary human hepatocytes (PHH) HBV infection assay, extracellular HBsAg (CLIA); type: cell-based; conditions: Hepatitis B virus, Hepatocyte, 216 h, read-out: HBsAg IC50
Description: This assay is used to confirm the anti-HBV effect of the compounds in HBV PHH infection assay. Cryopreserved PHH (BioreclamationIVT, Lot YJM) was thawed at 37° C. and gently transferred into pre-warmed InVitroGRO HT medium (BioreclamationIVT, Cat. S03317). The mixture was centrifuged at 70 relative centrifugal force (RCF) for 3 mins at RT, and the supernatant was discarded. Pre-warmed InVitroGRO CP medium (BioreclamationIVT, Cat #S03316) was added to the cell pellet to gently re-suspend cells. The cells were seeded at the density of 5.8×10^4 cells per well to collagen I coated 96-well plate (Gibco, Cat. A1142803) with the InVitroGRO CP medium. All plates were incubated at 37° C. with 5% CO2 and 85% humidity.
At 20 hours after plating, the medium was changed to PHH culture medium (Dulbecco's Modified Eagle Medium (DMEM)/F12 (1:1) (Gibco, Cat. 11320-033), 10% fetal bovine serum (Gibco Cat. 10099141), 100 U/mL penicillin, 100 μg/mL streptomycin (Gibco, Cat. 151401-122), 5 ng/mL human epidermal growth factor (Invitrogen Cat. PHG0311L), 20 ng/mL dexamethasone (Sigma, Cat. D4902) and 250 ng/mL human recombinant insulin (Gibco, Cat. 12585-014)). And the cells were incubated at 37° C. with 5% CO2 and 85% humidity for 4 hours. The medium was then changed to pre-warmed PHH culture medium containing 4% polyethylene glycol (PEG) MW8000 (Sigma, Cat. P1458-50ML) and 1% DMSO (Sigma, Cat. D2650). 5.8×10^6 genomic equivalents of HBV were added into the medium.
At 24 hours post-infection, the cells were gently washed with PBS and refreshed with PHH culture medium supplemented with 1% DMSO, and 0.25 mg/mL Matrix gel (Corning, Cat. 356237) at 200 μL per well. All plates were immediately placed in at 37° C. CO2 incubator.
24 hours later, serial dilutions of compounds made with DMSO were further diluted with the same culture medium (PHH culture medium supplemented with 1% DMSO and 0.25 mg/mL Matrix gel as described above) before they were added to the cells to reach desired final compound concentrations and 1% DMSO concentration. The medium containing the compounds were refreshed every three days.
At 9 days post-compound treatment, extracellular HBsAg level were measured with Chemiluminescence Immuno Assay (CLIA) kit (Autobio, HBsAg Quantitative CLIA). Extracellular HBV DNA was extracted by MagNA Pure 96 system (Roche) and then determined by quantitative PCR with the following primers and probe: […]
HBsAg IC50 and HBV DNA IC50 values were derived from the dose-response curve using 4 parameter logistic curve fit method. The compounds of formula (I) have HBsAg IC50<20 μM, particularly <1 μM; and HBV DNA IC50<50 μM.

[2] = system: HBeAg level in HepDES19 cells (surrogate marker for cccDNA); experiment: Engineered HepDES19 primary screen assay (HBeAg as surrogate marker for cccDNA); type: cell-based, HBV; conditions: Hepatitis B virus, HepDES19, 120 h, read-out: IC50 (HBeAg level, HepDES19 primary screen assay)
From the text: The assay was employed to screen for novel cccDNA inhibitors. HepDES19 is a cccDNA-producing cell line. In this cell line, HBeAg in the cell culture supernatant as surrogate marker, as HBeAg production depends on cccDNA level and activity. HepDES19 is an engineered cell line which contains a 1.1 unit length HBV genome, and pgRNA transcription from the transgene is controlled by Tetracycline (Tet). In the absence of Tet, pgRNA transcription will be induced, but HBV e antigen (HBeAg) could not be produced from this pgRNA due to very short leader sequence before the HBeAg start codon and the start codon is disrupted. Only after cccDNA is formed, the missing leader sequence and start codon mutation would be restored from the 3′-terminal redundancy of pgRNA, and then HBeAg could be synthesized. Therefore, HBeAg could be used as a surrogate marker for cccDNA (Zhou, T. et al., Antiviral Res. (2006), 72(2), 116-124; Guo, H. et al., J. Virol. (2007), 81(22), 12472-12484).
HepDES19 cells were seeded at 2×10^6 cells per T150 flask and cultured with the culture medium (Dulbecco's Modified Eagle Medium: Nutrient Mixture F-12 [DMEM-F12, Gibco Cat. 11320-82], 10% Fetal Bovine Serum [FBS, Clontech Cat. 631101], 0.1 mM Non-Essential Amino Acids Solution [NEAA, Gibco Cat. 11140-050], 50 μg/mL Penicillin-Streptomycin [PS, Invitrogen Cat. 15140-163], 500 μg/mL Geneticin [G418, Invitrogen Cat. 10131-027]) containing 3 μg/mL Tet (Sigma, Cat. 87128) for 5 days. Cells were then seeded at 4×10^6 cells per T150 in the same culture medium as described above in the absence of Tet for 8 days. Cells were then harvested and frozen at density of 2×10^6 cells per mL. For compound testing, the frozen cells were thawed and seeded into 96-well plates at a density of 6×10^4 cells per well. At 24 hours after seeding, half log serial dilutions of compounds made with Dimethyl sulfoxide (DMSO, Sigma, Cat. D2650) were further diluted with the same culture medium as described above before they were added to the cells to reach desired final compound concentrations and 1% DMSO concentration. Plates were then incubated at 37° C. for another 5 days before measurement of HBeAg level and cell viability. Intracellular HBeAg level were measured with enzyme-linked immunosorbent assay (ELISA) kit (Shanghai Kehua Diagnostic Medical Products Co., Ltd). Cell viability was assessed using Cell Counting Kit-8 (Donjindo, Cat. CK04-20). IC50 values were derived from the dose-response curve using 4 parameter logistic curve fit method.
The compounds of the present invention were tested for their capacity to inhibit extracellular HBeAg level as described herein.

Row | Structure (SMILES) | IC50 [1] [µM] | IC50 [2] [µM]
1 | O=C1c2oc3c(Cl)cccc3c(=O)c2CCN1c1ccc(Cl)c(C(F)(F)F)c1 [Example 22, 9-chloro-2-(4-chloro-3-(trifluoromethyl)phenyl)-3,4-dihydro-2H-chromeno[2,3-c]pyridine-1,5-dione] | 3.44 | 25.6
2 | O=C1c2oc3c(Cl)cccc3c(=O)c2CCN1c1ccc(F)c(C(F)(F)F)c1 [Example 18, 9-chloro-2-(4-fluoro-3-(trifluoromethyl)phenyl)-3,4-dihydro-2H-chromeno[2,3-c]pyridine-1,5-dione] | 2.84 | 14
3 | O=C1c2oc3c(Cl)cccc3c(=O)c2CCN1c1ccccc1 [Example 19, 9-chloro-2-phenyl-3,4-dihydro-2H-chromeno[2,3-c]pyridine-1,5-dione] | 16.9 | 0.56
4 | O=C1c2oc3c(Cl)cccc3c(=O)c2CN1c1ccc(Cl)cc1 [Example 51, 5-chloro-2-(4-chlorophenyl)-1H-chromeno[2,3-c]pyrrole-3,9-dione] | 5.8 | 5.46
5 | CC(C)(C)OC(=O)N1CCc2c(oc3c(Cl)cccc3c2=O)C1 [Example 1, tert-butyl 9-chloro-5-oxo-3,4-dihydro-1H-chromeno[2,3-c]pyridine-2(5H)-carboxylate] | 10.6 | 9.12
6 | O=C1c2oc3c(Cl)cccc3c(=O)c2CCN1c1ccc(F)cc1 [Example 14, 9-chloro-2-(4-fluorophenyl)-3,4-dihydro-2H-chromeno[2,3-c]pyridine-1,5-dione] | 9.85 | 2.07
7 | O=C(O)C1CC(Oc2cc(Cl)ccc2N2CCc3c(oc4c(Cl)cccc4c3=O)C2=O)C1 (stereo not shown) [Example 26, 3-(5-chloro-2-(9-chloro-1,5-dioxo-1,3,4,5-tetrahydro-2H-chromeno[2,3-c]pyridin-2-yl)phenoxy)cyclobutane-1-carboxylic Acid] | 18.1 | –
8 | O=C1c2oc3c(Cl)cccc3c(=O)c2CCN1c1ccc(Cl)nc1 [Example 16, 9-chloro-2-(6-chloropyridin-3-yl)-3,4-dihydro-2H-chromeno[2,3-c]pyridine-1,5-dione] | 3.17 | 34.4
9 | O=C(O)C1CC(Oc2ccccc2N2CCc3c(oc4c(Cl)cccc4c3=O)C2=O)C1 (stereo not shown) [Example 25, 3-(2-(9-chloro-1,5-dioxo-1,3,4,5-tetrahydro-2H-chromeno[2,3-c]pyridin-2-yl)phenoxy)cyclobutane-1-carboxylic Acid] | 48.4 | –
10 | O=C1c2oc3c(Cl)cccc3c(=O)c2CCN1c1ccc(Cl)cc1F [Example 29, 9-chloro-2-(4-chloro-2-fluorophenyl)-3,4-dihydro-2H-chromeno[2,3-c]pyridine-1,5-dione] | 2.17 | 2.36
11 | COc1ccc(N2CCc3c(oc4c(Cl)cccc4c3=O)C2)cc1 [Example 40, 9-chloro-2-(4-methoxyphenyl)-1,2,3,4-tetrahydro-5H-chromeno[2,3-c]pyridin-5-one] | 11.6 | 5.9
12 | O=C1c2oc3c(Cl)cccc3c(=O)c2CCN1c1ccc(C(F)(F)F)cc1 [Example 20, 9-chloro-2-(4-(trifluoromethyl)phenyl)-3,4-dihydro-2H-chromeno[2,3-c]pyridine-1,5-dione] | 7.4 | 5.68
13 | COc1ccc(N2CCc3c(oc4c(Cl)cccc4c3=O)C2=O)cc1 [Example 9, 9-chloro-2-(4-methoxyphenyl)-3,4-dihydro-1H-chromeno[2,3-c]pyridine-1,5(2H)-dione] | 3.52 | 2.73
14 | COc1cccc(N2CCc3c(oc4c(Cl)cccc4c3=O)C2)c1 [Example 41, 9-chloro-2-(3-methoxyphenyl)-1,2,3,4-tetrahydro-5H-chromeno[2,3-c]pyridin-5-one] | 30.7 | 19.2
15 | O=C1c2oc3c(Cl)cccc3c(=O)c2CCN1c1ccccc1OC(F)(F)F [Example 23, 9-chloro-2-(2-(trifluoromethoxy)phenyl)-3,4-dihydro-2H-chromeno[2,3-c]pyridine-1,5-dione] | 16.5 | 6.88
16 | Cn1cc(N2CCc3c(oc4c(Cl)cccc4c3=O)C2=O)cn1 [Example 35, 9-chloro-2-(1-methyl-1H-pyrazol-4-yl)-3,4-dihydro-2H-chromeno[2,3-c]pyridine-1,5-dione] | 10.5 | 46.9
17 | O=c1c2c(oc3c(Cl)cccc13)CN(c1ccc(C(F)(F)F)cc1)CC2 [Example 39, 9-chloro-2-(4-(trifluoromethyl)phenyl)-1,2,3,4-tetrahydro-5H-chromeno[2,3-c]pyridin-5-one] | 5.65 | 0.96
18 | COc1cc(Cl)ccc1N1CCc2c(oc3c(Cl)cccc3c2=O)C1=O [Example 17, 9-chloro-2-(4-chloro-2-methoxyphenyl)-3,4-dihydro-2H-chromeno[2,3-c]pyridine-1,5-dione] | 14.7 | 2.4
19 | O=C1c2oc3c(Cl)cccc3c(=O)c2CCN1c1ccc(Cl)c(Cl)c1 [Example 28, 9-chloro-2-(3,4-dichlorophenyl)-3,4-dihydro-2H-chromeno[2,3-c]pyridine-1,5-dione] | 0.57 | 1.08
20 | O=C1c2oc3c(Cl)cccc3c(=O)c2CCN1c1ccc(Cl)cc1 [Example 12, 9-chloro-2-(4-chlorophenyl)-3,4-dihydro-1H-chromeno[2,3-c]pyridine-1,5(2H)-dione] | 2.76 | 0.82
21 | O=C1c2oc3c(Cl)cccc3c(=O)c2CCN1c1ccc(Cl)cc1C(F)(F)F [Example 27, 9-chloro-2-(4-chloro-2-(trifluoromethyl)phenyl)-3,4-dihydro-2H-chromeno[2,3-c]pyridine-1,5-dione] | 13 | 0.89
